Tests used:
[1] = system: hamster PDK-4 mRNA in liver; assay: PDK-4 mRNA induction in liver of fat-fed hamsters; type: in vivo; settings: single dose (GW9578 3 mg/kg, fenofibrate 100 mg/kg, gemfibrozil 500 mg/kg), 16 hour post-treatment
Experimental: (§1) FIG. 4A is a bar graph depicting the induction of PDK-4 mRNA in hamster liver by PPARα ligands. […] After 16 hours, the tissues were harvested, total RNA isolated and levels of hamster PDK-4 mRNA were detected by RT-PCR. The values are normalized to 18S rRNA levels. The mean and SEM of three individual animals are shown.
(§2) PDK-4 plays a critical role in regulating glucose metabolism by phosphorylating and inactivating the pyruvate dehydrogenase complex in response to increased fatty acid oxidation. […] To investigate the response of PDK-4 to fibrate treatment in vivo, in another aspect of the present invention the fat-fed hamster model was employed, which closely mimics the serum lipid profiles of humans than other rodent models (Sullivan et al., (1993) Lab. Anim. Sci. 43:575-578). […] These doses were previously shown to yield maximal effects on blood triglycerides in hamster. […] In hamster kidney, the basal levels of PDK-4 mRNA were approximately 10-fold higher than in the liver (FIG. 4B). […] Fibrates are effective treatments for lowering serum triglyceride levels. To verify that the doses used in this study were efficacious, blood triglyceride levels were monitored over a 48 hour time course.
(§3) Real-time PCR: Fluorescence-based real-time PCR was performed essentially as described (Abbaszade et al., (1999) J. Biol. Chem. 274:23443-23450). […] Taqman-based real-time PCR expression profiling was performed using 25 ng of each cDNA according to the manufacturer's (PE Biosystems) instructions with fluorescence being monitored in real-time with an ABI Prism 7700 (PE Biosystems). Relative expression levels were determined essentially as described (Gibson et al., (1996) Genome Res. 6:995-1001) using standard curves for each transcript. Relative abundance was then determined from these standard curves, subtracting mRNA levels obtained from negative control reactions performed in the absence of reverse transcriptase, and normalized to 18S rRNA levels. […]

[2] = system: hamster PDK-4 mRNA in kidney; assay: PDK-4 mRNA induction in kidney of fat-fed hamsters; type: in vivo; settings: single dose (GW9578 3 mg/kg, fenofibrate 100 mg/kg, gemfibrozil 500 mg/kg), 16 hours
Experimental: as §1, with “4B” for “4A”, “graphs” for “graph”, “kidney” for “liver”
as §2, §3

[3] = Serum triglyceride levels in fat-fed hamsters; type: in vivo, hamster; settings: for Serum triglyceride levels, 48 h / Serum triglyceride levels, 8 h / Serum triglyceride levels, 16 h: single dose, mean +/- SEM, 3 animals; for Serum triglyceride levels, 48 h: control 208.67; for Serum triglyceride levels, 8 h: control 261.33; for Serum triglyceride levels, 16 h: control 308.00
Experimental: Blood was sampled at 8, 16 and 48 hours following a single drug treatment for total triglyceride analysis. The mean levels (+/−SEM) for 3 animals per group are shown. The “*” indicates a statistically significant difference with respect to control (p<0.01) by Student's t-test. Animal studies: All procedures performed in this study were approved by the Animal Care and Use committee, and conform to the guide for the Care and Use of Laboratory Animals Act. Male Syrian Golden hamsters (Charles River, Wilmington Mass.) weighing 120-140 g, were used in the study. Animals were kept on a 12-hour light/dark cycle and allowed free access to normal chow and water. The animals were divided into groups according to weight, and fed either an high fat diet (0.5% cholesterol, 5% coconut oil) (N=3) or normal chow diet (N=3). […] At intervals of 0, 8, 16 and 48 hr animals were anesthetized with CO2. Blood was collected by cardiac puncture into EDTA containing tubes; plasma was isolated for immediate analysis of triglycerides by the Dade Clinical Analyser®. Animals were then euthanized with CO2. The liver and kidneys were collected, flash frozen in liquid nitrogen and stored at −80° C. for future gene expression analysis.

[4] = system: PDK-4 mRNA in HK-2 cells (endogenous PPARα); assay: PDK-4 mRNA induction in HK-2 cells (real-time RT-PCR); type: cell-based, human; settings: 24 hours; for EC50: Homo sapiens, HK-2, PDK-4 mRNA induction by quantitative PCR, normalized to 18S rRNA, read-out: EC50 (μM) in HK-2 (PDK-4)
Experimental: (§4) Values were normalized to 18S rRNA levels.
(§5) EC50 values were determined for PDK-4 mRNA induction by quantitative PCR under conditions used to generate the data shown in FIG. 2. EC50 values in the transactivation assays were determined by transfection of an expression plasmid encoding a GAL4-hPPARα chimera into cells co-expressing a luciferase reporter gene under the transcriptional control of GAL4 upstream activating elements.
(§6) Cell culture: The following cell lines were obtained from American Type Culture Collection (ATCC) and cultured in the recommended medium for each cell type: HepG2, HK-2, Caki-1, LNCaP (CloneFGC), SW872, and ACHN. PPARα compounds were prepared to a 500× stock in DMSO; corresponding control cells received an equal volume of vehicle (0.2% v/v).
Real-time PCR: Fluorescence-based real-time PCR was performed essentially as described (Abbaszade et al., (1999) J. Biol. Chem. 274:23443-23450). Primers and probes designed from the hamster pyruvate dehydrogenase kinase 4 (PDK4) sequence (Genbank Accession No. AF321218), human pyruvate dehydrogenase kinase 4 (PDK-4) sequence (Genbank Accession No. NM_002612) and human adipose differentiation-related protein (ADFP) sequence (Genbank Accession No. NM_001122) were synthesized and purified by Biosearch Technologies. Probes for ADFP and PDK-4 were modified at the 5′ end with the reporter dye 6-FAM, and at the 3′ end with the quencher dye Black Hole Quencher 1 (Biosearch Technologies). Probes detecting rat 18S rRNA were modified at the 5′ end with VIC and at the 3′ end with TAMRA (Biosearch Technologies). For detection of hamster PDK4, primers 5′-[…] (SEQ ID NO:2), 5′[…] (SEQ ID NO:3), and probe 5′-[…] (SEQ ID NO:4) were used. For detection of human PDK4, primers 5′-[…] (SEQ ID NO:5), 5′-[…] (SEQ ID NO:6), and probe 5′-[…] (SEQ ID NO:7) were used. For detection of human ADFP, primers 5′-[…] (SEQ ID NO:8), 5′-[…] (SEQ ID NO:9), and probe 5′-[…] (SEQ ID NO: 10) were used. For detection of 18s rRNA, primers 5′-[…] (SEQ ID NO:11), 5′-[…] (SEQ ID NO:12), and probe 5′-[…] (SEQ ID NO:13) were used. Template cDNA was generated using the Advantage RT-PCR kit according to the manufacturer's (Clontech) instructions using random hexamers and 1 μg of DNaseI-treated total RNA. Taqman-based real-time PCR expression profiling was performed using 25 ng of each cDNA according to the manufacturer's (PE Biosystems) instructions with fluorescence being monitored in real-time with an ABI Prism 7700 (PE Biosystems). Relative expression levels were determined essentially as described (Gibson et al., (1996) Genome Res. 6:995-1001) using standard curves for each transcript. Relative abundance was then determined from these standard curves, subtracting mRNA levels obtained from negative control reactions performed in the absence of reverse transcriptase, and normalized to 18S rRNA levels. All expression measurements were performed in duplicate in two independent assays, generating a total of four measurements per cDNA.

GAL4-hPPARα = biological target: T1, GAL4-hPPARα (Homo sapiens, UniProt Q07869); assay: Transactivation assay, GAL4-hPPARα chimera with luciferase reporter; type: cell-based; settings: HEK293 cell line with GAL4 UAS-Luciferase reporter; read-out: EC50 (μM) in Transactivation Assay (GAL4-hPPARα), Present Disclosure
T1 construct: other: HEK293 cell line with GAL4 UAS-Luciferase
T1 sequence (Q07869 200-468 limits assumed): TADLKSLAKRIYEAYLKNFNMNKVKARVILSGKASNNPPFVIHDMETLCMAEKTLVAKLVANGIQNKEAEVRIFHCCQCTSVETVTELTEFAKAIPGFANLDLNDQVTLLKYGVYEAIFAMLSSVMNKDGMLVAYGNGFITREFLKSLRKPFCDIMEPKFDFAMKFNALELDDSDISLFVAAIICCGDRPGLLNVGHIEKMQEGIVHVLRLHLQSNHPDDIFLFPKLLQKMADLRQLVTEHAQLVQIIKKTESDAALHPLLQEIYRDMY
Experimental: as §5
Transcriptional activation assay: Cell based transcriptional activation assays using a GAL4-hPPARa expression plasmid and an HEK293 cell line stably integrated with a GAL4 UAS-Luciferase reporter gene was performed exactly as described previously (Mukherjee et al., (2002) J. Steroid Biochem. Mol. Biol. 1712:1-9).

PDK-4 [5] = settings: Way et al. (2001); cited from earlier work
[6] = system: PDK4 mRNA in HEK293 cells; assay: PDK4 mRNA induction in HEK293 cells by PPAR modulators (Taqman PCR); type: cell-based, human; settings: 4 hours; 100 micromolar fenofibric acid, 10 micromolar rosiglitazone, 10 micromolar GW501516; relative to CYCD1 mRNA
Experimental: HEK293 cells were treated for 4 hours with the following PPAR modulators:
100 micromolar fenofibric acid (a PPARα selective modulator), 10 micromolar rosiglitazone (a PPARγ selective modulator) and 10 micromolar GW501516 (a PPARβ(δ) selective modulator; Oliver et al., (2001) Proc. Natl. Acad. Sci. U.S.A. 98:5306-11). PDK4 mRNA was measured by Taqman PCR analysis. The PDK4 expression levels are expressed relative to CYCD1 mRNA used as a normalization control.

[7] = system: ADRP mRNA in HK-2 cells (endogenous PPARα); assay: ADRP mRNA induction in HK-2 cells (real-time RT-PCR); type: cell-based, human; settings: highest dose tested 300 μM
Experimental: as §4, §6, §3

hamster PPARα = assay: Hamster PPARα transactivation assay; type: cell-based
PDK-4 [8] = settings: Wu et al. (1999); abrogated in PPARα-/- mice; cited from earlier work

| EC50 (GAL4-hPPARα) | Compound | Induction of PDK-4 mRNA levels in the liver [1] | Induction of PDK-4 mRNA in kidney [2] | Serum triglyceride levels, 48 h [3] | Serum triglyceride levels, 8 h [3] | Serum triglyceride levels, 16 h [3] | EC50 [4] | also measured |
| --- | --- | --- | --- | --- | --- | --- | --- | --- |
| – | CC(C)OC(=O)C(C)(C)Oc1ccc(C(=O)c2ccc(Cl)cc2)cc1 [Fenofibrate, fenofibrate] | 14 fold | 11 fold | 146.33 + 17.15 | 229.00 + 38.52 | 231.67 + 63.22 | – | – |
| 80 µM | CC(C)(Oc1ccc(C(=O)c2ccc(Cl)cc2)cc1)C(=O)O [Fenofibric Acid, fenofibric acid] | – | – | – | – | – | 10 µM | – |
| – | CN(CCOc1ccc(C[C@H](Nc2ccccc2C(=O)c2ccccc2)C(=O)O)cc1)c1ccccn1 [GW1929] | – | – | – | – | – | – | PDK-4 levels in the skeletal muscle of rats (PDK-4 [5]): decrease PDK-4 levels |
| – | Cc1cc(SCc2sc(-c3ccc(C(F)(F)F)cc3)nc2C)ccc1OCC(=O)O [GW501516] | – | – | – | – | – | – | PDK4 mRNA induction in HEK293 cells [6]: induced |
| 60 µM | Cc1ccc(C)c(OCCCC(C)(C)C(=O)O)c1 [Gemfibrozil] | least effect | no effect | 206.33 + 65.30 | 334.33 + 82.42 | 325.67 + 46.77 | 27 µM | Efficacy of PDK-4 induction compared with GW9578 ([4]; HK-2 cells, maximal induction by GW9578 = 100%): lower efficacy than GW9578; Saturation of ADRP induction [7]: did not appear to saturate; Activity in hamster PPARα transactivation assay (hamster PPARα): lowest activity; Change of triglyceride levels compared with the control group ([3]; single dose, 8, 16 and 48 hours): neither gemfibrozil nor fenofibrate altered triglyceride levels to a statistically significant degree |
| – | Cc1cccc(Nc2cc(Cl)nc(SCC(=O)O)n2)c1C [WY-14, 643] | – | – | – | – | – | – | PDK-4 induction in rodent tissues in vivo (PDK-4 [8]): PDK-4 induction was observed |

Source: patent US20040106135A1, “Assay for PPAR ligand dependent gene modulation” (priority 2002, published 2004)
